Results from the supplement of paper PMC10290057.
Structures can show the parent of a compound that is named as a salt.

What follows are compounds tested on HCT116 (assay: efficacy (fitted maximal change in viability relative to DMSO control); higher = less cytotoxic (negative = loss of viability)). Settings: 48 h.
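Note: Luminescence-based viability readout, five doses per compound, normalized against on-plate DMSO and empty-well controls, followed by dose-response curve fitting for every drug.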

Going from `CCOC(=O)c1c(/C(C#N)=C\N)c2ccc(Cl)c(Cl)c2n1C` [KH-CB19] to `O=C(O)c1nn(Cc2ccc(Cl)cc2Cl)c2ccccc12` [Lonidamine], the efficacy rises from -9.36% to -7.79%.

Compared with `COc1cc([C@@H](CC(=O)O)c2ccc(C)c(CN3C[C@@H](C)Oc4ccccc4[S+]3(=O)[O-])c2)cc2nnn(C)c12` [KI-696], `O=C(O)c1ccccc1-c1ccc(/C=c2\sc3nc4cc(Br)cnc4n3c2=O)o1` [ML-119] is higher in efficacy: -21.8% for the first, -9.89% for the second.

First: C[S+](=O)([O-])N(Cc1ccco1)CC(O)Cn1c2ccccc2c2ccccc21 (stereo not drawn) [KL001]
Second: OCc1ccc(-c2nn(Cc3ccccc3)c3ccccc23)o1 [Lificiguat]
The efficacy of the first is higher: -21.8% for the first, -57.1% for the second.

Compared with `CN(C(Cc1ccc(OS(=O)(=O)c2cccc3cnccc23)cc1)C(=O)N1CCN(c2ccccc2)CC1)S(=O)(=O)c1cccc2cnccc12` (stereo not drawn) [KN-62], `O=C1N(c2ccccc2)c2ccccc2C1(Cc1ccncc1)Cc1ccncc1` [Linopirdine] is higher in efficacy: -21.2% for the first, -12.1% for the second.

First: CCCNC(=O)Nc1ccc(Oc2ncnc3cc(OC)c(OC)cc23)cc1Cl [KRN-633]
Second: COc1ccc(CNC(=O)c2cc(-c3cncc(Cl)c3)cnc2-c2ccccn2)nc1OC [MK-1064]
The efficacy of the first is lower: -12.8% for the first, 12.4% for the second.

First: OC1=CC=C(C=C1)\C2=C(O)\C(=O)C3=C(O2)C=C(O)C=C3O [Kaempferol]
Second: CN1CCN(C(=O)c2ccc(-c3ccc4c(C=O)c(O)ccc4c3)s2)CC1 [MKC-3946]
The efficacy of the first is higher: 12.7% for the first, -13.9% for the second.

First: O=C(c1ccccc1)c1ccc2n1CCC2C(=O)O (stereo not drawn) [Ketorolac]
Second: CC1(C)Cc2c(-c3ccccc3)c(-c3ccc(Cl)cc3)c(CC(=O)O)n2C1 [Licofelone]
The efficacy of the first is higher: -7.25% for the first, -36.6% for the second.

Compared with `CN1CCC(=C2c3ccccc3CC(=O)c3sccc32)CC1` [Ketotifen], `O=[S+]([O-])(c1cccc2c(I)cccc12)N1CCCNCC1` [ML-7] is lower in efficacy: -39.1% for the first, -56.9% for the second.

Going from `c1coc(CNc2ncnc3nc[nH]c23)c1` [Kinetin] to `Cc1c(OCC(F)(F)F)ccnc1C[S+]([O-])c1nc2ccccc2[nH]1` (stereo not drawn) [Lansoprazole], the efficacy rises from -22.2% to -18.3%.

Going from `N[C@@H](Cc1cc(I)c(Oc2cc(I)c(O)c(I)c2)c(I)c1)C(=O)O` [L-Thyroxine] to `C[S+](=O)([O-])Oc1ccc2c(NC(N)=O)c(C(=O)c3ccc(Cl)cc3Cl)oc2c1` [Lirimilast], the efficacy falls from -8.54% to -17.7%.

First: CN[C@@H](C)C(=O)N[C@H](C(=O)N1CCC[C@H]1c1nc(C(=O)c2ccc(F)cc2)cs1)C1CCCCC1 [LCL-161]
Second: Cc1c(F)cc(C(=O)NC2CC2)cc1-c1ccc(C(=O)NCC(C)(C)C)cn1 [Losmapimod]
The efficacy of the first is lower: -23.8% for the first, -18.8% for the second.

First: C/C(O)=C(\C#N)C(=O)Nc1cc(Br)ccc1Br [LFM-A13]
Second: C[C@@H]\1CC(=O)N\N=C1C2=CC=C(NN=C(C#N)C#N)C=C2 [Levosimendan]
The efficacy of the first is higher: -11.7% for the first, -64.6% for the second.

First: CC(N[C@H]1C[C@@H]1c1ccccc1)c1ccc2c(c1)OCCO2 (stereo partly drawn) [LSD1-C76]
Second: O=C1O[C@]2(CC[C@@H](C(=O)Nc3ccn(-c4ccccc4F)n3)CC2)c2cnccc21 [MK-0557]
The efficacy of the first is lower: -23.9% for the first, -11.9% for the second.

First: NCCCC[C@H](NC(=O)[C@@H](NC(=O)[C@H](Cc1c[nH]c2ccccc12)NC(=O)[C@H](CCCCN)NC(=O)[C@H](CCCCN)NC(=O)[C@H](Cc1c[nH]c2ccccc12)NC(=O)[C@H](Cc1c[nH]c2ccccc12)NC(=O)[C@H](CCCCN)NC(=O)[C@@H](N)CCCCN)C(c1ccccc1)c1ccccc1)C(N)=O [LTX-315]
Second: CCCCN(CCCC)CC(O)c1cc(Cl)cc2c1-c1ccc(Cl)cc1/C2=C/c1ccc(Cl)cc1 (stereo not drawn) [Lumefantrine]
The efficacy of the first is lower: -89.2% for the first, -26.5% for the second.

Going from `COC[C@@H](NC(C)=O)C(=O)NCc1ccccc1` [Lacosamide] to `CN1\C(=C([O-])/C2=CC=CC=C2[S+]1([O-])=O)C(=O)NC3=NC=C(C)S3` [MELOXICAM SODIUM], the efficacy rises from -14.4% to 9%.

Going from `NC\1=N\C(=O)N(\C=C1)[C@@H]2CS[C@H](CO)O2` [Lamivudine] to `Nc1cccc2c1CN([C@H]1CCC(=O)NC1=O)C2=O` [Lenalidomide], the efficacy falls from -6.75% to -14%.

First: C[S+](=O)([O-])c1cc(F)cc2c3c(n(Cc4ccc(Cl)cc4)c12)[C@@H](CC(=O)O)CC3 [Laropiprant]
Second: O=C(O)CCC1CCC(c2cc(F)ccc2F)([S+](=O)([O-])c2ccc(Cl)cc2)CC1 (stereo not drawn) [MK-0752]
The efficacy of the first is higher: -18.4% for the first, -19% for the second.

First: N#Cc1ccc(C(c2ccc(C#N)cc2)n2cncn2)cc1 [Letrozole]
Second: Clc1cccc(C(c2ccc3nc[nH]c3c2)n2ccnc2)c1 (stereo not drawn) [Liarozole]
The efficacy of the first is higher: -10.3% for the first, -23% for the second.

Going from `C[C@H]1COC2=C3N1\C=C(C(O)=O)/C(=O)C3=CC(=C2N4CCN(C)CC4)F` [Levofloxacin] to `CCN1\C=C(C(O)=O)/C(=O)C2=C1C(=C(N3CCNC(C)C3)C(=C2)F)F` (stereo not drawn) [Lomefloxacin hydrochloride], the efficacy falls from -12.3% to -18.8%.

Compared with `CC#CCn1c(N2CCC[C@@H](N)C2)nc2c1c(=O)n(Cc1nc(C)c3ccccc3n1)c(=O)n2C` [Linagliptin], `Cn1c(-c2ccccc2C(F)(F)F)nnc1C12CCC(c3noc(C4CC(F)(F)C4)n3)(CC1)CC2` [MK-4101] is higher in efficacy: -31.7% for the first, -26.2% for the second.

Going from `CCOC(=O)O[C@@]1(CC[C@H]2[C@@H]3CCC/4=C/C(=O)/C=C\[C@]4(C)[C@H]3[C@@H](O)C[C@]12C)C(=O)OCCl` [Loteprednol etabonate] to `CC[C@H](C)C(=O)O[C@H]1C[C@@H](C)\C=C2\C=C/[C@H](C)[C@H](CC[C@@H]3C[C@@H](O)CC(=O)O3)[C@@H]12` [Lovastatin], the efficacy rises from -16% to -14.4%.

Compared with `CCCCC(F)(F)[C@@]1(O)CC[C@H]2[C@@H](CC(=O)[C@@H]2CCCCCCC(=O)O)O1` [Lubiprostone], `CO[C@@H]1COCC[C@@H]1N[C@@H]1CC[C@@](C(=O)N2CCc3ncc(C(F)(F)F)cc3C2)(C(C)C)C1` [MK-0812] is lower in efficacy: -6.29% for the first, -11.1% for the second.

First: C=C(C)[C@@H]1CC[C@]2(C)CC[C@]3(C)[C@H](CC[C@@H]4[C@@]5(C)CC[C@H](O)C(C)(C)[C@@H]5CC[C@]43C)[C@@H]12 [Lupeol]
Second: O=C(O)Cn1nnc(-c2cc(N3CCC(Oc4cc(F)ccc4Br)CC3)no2)n1 [MK-8245]
The efficacy of the first is higher: -15.6% for the first, -19.9% for the second.

Going from `C1Cc2[nH]nc(-c3nn[nH]n3)c2C1` [MK-0354] to `[2H]C([2H])(Nc1nc(-c2ccccc2C([2H])(C([2H])([2H])[2H])C([2H])([2H])[2H])ncc1C)c1ccc(-n2ccnn2)cc1` [ML-323], the efficacy falls from -7.85% to -36.2%.

Going from `COc1ccc(CC2SC(=O)NC2=O)cc1C(=O)NCc1ccc(C(F)(F)F)cc1` (stereo not drawn) [MK-767] to `COc1c(Cl)cc2c([nH]c3cnccc32)c1NC(=O)c1cccnc1C` [MLN-120B], the efficacy falls from -17.2% to -95.3%.

Going from `COC1=CC=C(C=C1)C2CC(=N/N2C3=CC=C(C=C3)[S+](N)([O-])=O)\C4=CC=CC=C4` (stereo not drawn) [ML-141] to `COc1ccc(-c2cnc3c(-c4cccc5ncccc45)cnn3c2)cc1` [ML-347], the efficacy rises from -60% to 9.54%.

`CCCN[S+](=O)([O-])Nc1ncnc(OCCOc2ncc(Br)cn2)c1-c1ccc(Br)cc1` [Macitentan] was tested, and the efficacy was -63.7%.
